From PMC4416907, “An Unexpected Mode Of Binding Defines BMS948 as A Full Retinoic Acid Receptor β (RARβ, NR1B2) Selective Agonist” (PLoS ONE, 2015)

Tests used:
[1] = test system: T1, human RARα1; experiment: Transient transactivation reporter assay, (RARE)3x-tk-luciferase in HeLa cells, agonist mode; assay type: cell-based; conditions: for agonistic activity on RARα-mediated transactivation: HeLa cells, ligand at single selective concentration, compared with 10 nM TTNPB (100%)
T1 construct: expressed in transfected cells; host or cells: HeLa
From the text: (§1) To evaluate the activity of a panel of synthetic retinoids (Fig 1) on RAR-mediated transactivation, we used HeLa cells transiently transfected with human RARα1,-β2, or—γ2 and a (RARE)3x-tk-luciferase reporter gene. Well characterized full agonist and antagonist retinoids were also used as reference compounds (S2 Fig). […] To further characterize the activation profile of BMS compounds, transfected cells were exposed to a range of ligand concentrations to establish dose-response curves.
(§2) (A to C) HeLa cells were transiently cotransfected with the reporter (RARE)3x-tk-Luc and RARα (A), RARβ (B) or RARγ (C), as indicated, to assess the RAR agonist potential of synthetic RAR ligands.
(§3) HeLa cells were cultured in DMEM with Glutamax and 10% (v/v) FCS and transfected using JetPei transfectant (Ozyme). After 24 h, the medium was changed to a medium containing the indicated ligands or vehicle. Cells were lysed and assayed for reporter expression 48 h after transfection. The luciferase assay system was used according to the manufacturer’s instruction (Promega). In each case results were normalized to coexpressed β–galactosidase. Each transfection was carried out in duplicate and repeated each three to six times.

[2] = target: T2, human RARβ2 (Homo sapiens, UniProt P10826); experiment: as above; assay type: cell-based
T2 construct: expressed in transfected cells; host or cells: HeLa
T2 sequence (P10826 1-448 isoform P10826-2): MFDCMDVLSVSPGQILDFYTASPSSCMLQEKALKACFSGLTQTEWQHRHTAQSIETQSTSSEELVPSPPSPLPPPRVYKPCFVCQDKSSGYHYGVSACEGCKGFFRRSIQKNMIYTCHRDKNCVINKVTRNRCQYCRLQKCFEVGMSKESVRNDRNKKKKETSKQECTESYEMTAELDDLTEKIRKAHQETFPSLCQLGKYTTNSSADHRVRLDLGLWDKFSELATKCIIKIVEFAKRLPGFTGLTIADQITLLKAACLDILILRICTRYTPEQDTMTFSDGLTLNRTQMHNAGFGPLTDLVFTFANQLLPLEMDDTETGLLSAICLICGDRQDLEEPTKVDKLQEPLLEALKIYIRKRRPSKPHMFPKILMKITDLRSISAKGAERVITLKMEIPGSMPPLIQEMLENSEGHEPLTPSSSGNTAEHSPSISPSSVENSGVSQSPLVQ
From the text: as §1, §2, §3

[3] = test system: T3, human RARγ2; experiment: as above; assay type: cell-based
T3 construct: expressed in transfected cells; host or cells: HeLa
From the text: as §1, §2, §3

[4] = target: T4, RARα (Homo sapiens, UniProt P10276); experiment: Transient transactivation assay, antagonist mode (competition with TTNPB-induced activity); assay type: cell-based; conditions: reporter activated with 3 nM TTNPB (100%); retinoids at 1 μM or increasing amounts
T4 construct: expressed in transfected cells; host or cells: HeLa
T4 sequence (P10276 1-462): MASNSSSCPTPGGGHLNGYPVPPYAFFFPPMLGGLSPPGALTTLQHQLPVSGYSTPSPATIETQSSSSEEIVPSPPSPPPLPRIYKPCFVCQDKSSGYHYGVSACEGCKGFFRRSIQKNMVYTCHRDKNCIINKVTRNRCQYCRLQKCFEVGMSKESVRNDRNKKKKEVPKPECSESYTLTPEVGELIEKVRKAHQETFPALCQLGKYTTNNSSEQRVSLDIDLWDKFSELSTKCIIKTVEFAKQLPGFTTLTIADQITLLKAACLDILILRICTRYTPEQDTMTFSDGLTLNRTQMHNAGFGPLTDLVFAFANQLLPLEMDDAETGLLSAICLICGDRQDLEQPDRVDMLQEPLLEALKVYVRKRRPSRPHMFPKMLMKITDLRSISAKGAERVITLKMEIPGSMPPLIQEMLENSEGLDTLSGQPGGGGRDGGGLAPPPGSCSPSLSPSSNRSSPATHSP
Experimental: (§4) To this end, transient transactivation assays were conducted in order to assess the ability of the synthetic retinoids to affect TTNPB-induced RAR activity. […] Competition curves with increasing concentrations of BMS411 yielded an IC50 of roughly 30 nM for RARα in keeping with the high affinity of this compound for this receptor subtype (Fig 3D). […] Overall, our data lead to the general conclusion that BMS948 is a full RARβ-selective agonist.
(§5) Fig 3 BMS948 is an RARβ-selective ligands. (A to C) Transient transactivation assays as in Fig 2 to assess the antagonist potential of synthetic RAR ligands (RARα (A), RARβ (B) or RARγ (C)).
as §3

[5] = test system: T5, RARβ; experiment: as above; assay type: cell-based, human; conditions: reporter activated with 3 nM TTNPB (100%); retinoids at 1 μM or increasing amounts
T5 construct: expressed in transfected cells; host or cells: HeLa
Experimental: as §4, §5, §3

[6] = test system: T6, RARγ; experiment: as above; assay type: cell-based, human; conditions: reporter activated with 3 nM TTNPB (100%); retinoids at 1 μM or increasing amounts
T6 construct: expressed in transfected cells; host or cells: HeLa
Experimental: as §4, §5, §3

[7] = test system: T7, hRARβL298F; experiment: Transient transactivation assay with mutant hRARβL298F in HeLa cells; assay type: cell-based, human
T7 construct: expressed in transfected cells; host or cells: HeLa
Experimental: The construct was verified by DNA sequencing.
as §3
(EPS) Click here for additional data file.

[8] = test system: T8, RARβ-TIF2 interaction; experiment: Mammalian two-hybrid assay Gal-TIF2 / VP16-RARβLBD in HeLa cells; assay type: cell-based; conditions: BMS compounds at 1 μM, TTNPB 10 nM
T8 construct: expressed in transfected cells; host or cells: HeLa
From the text: (§6) Supplementary file pone.0123195.s005.eps: S5 Fig Molecular basis of BMS641 partial activity. According to the current model of gene regulation by RARs, the agonistic property of a given retinoid depends on its ability to induce coregulator recruitment. RAR agonists dissociate corepressors (such as SMRT) and induce the recruitment coactivators (such as TIF2), resulting in transactivation. […] BMS641 was therefore categorized as a partial RARβ agonist. To further characterize the partial activity of BMS641, we used two-hybrid assays to monitor the interaction between RARβ and transcriptional coregulators in the presence of various retinoids. In these assays, a chimeric luciferase-based reporter gene ((17 m)5x-βGlob-Luc) is transfected together with two expression vectors. One expresses a fusion protein (Gal-TIF2 or Gal-SMRT) that binds through the Gal DNA binding domain (Gal) to the pentamer of the “17m” DNA recognition site in the reporter gene and contains the nuclear receptor interacting domain of the coregulator. The other vector expresses a second fusion protein composed of the VP16 acidic transcription activation domain, and the LBD of RARβ. […] Strikingly, the RARβ-SMRT interaction was maintained in the presence of BMS641, in agreement with the partial agonistic activity of this compound. […] BMS641 induces reduced coactivator recruitment, but cannot dissociate corepressors. […]

[9] = test system: T9, RARβ-SMRT interaction; experiment: Mammalian two-hybrid assay Gal-SMRT / VP16-RARβLBD in HeLa cells; assay type: cell-based; conditions: BMS compounds at 1 μM, TTNPB 10 nM; 100% = absence of ligand
T9 construct: expressed in transfected cells; host or cells: HeLa
From the text: as §6

[10] = test system: T10, RARγ→β; experiment: Transient transactivation assay with chimeric LBP mutant RARγ→β in HeLa cells; assay type: cell-based; conditions: 10^–9 to 10^–6 M; 100% = TTNPB at 10nM
T10 construct: expressed in transfected cells; host or cells: HeLa
From the text: (§7) Supplementary file pone.0123195.s004.eps: S4 Fig The methionine 272 of RARγ LBP is a most important discriminatory element for the RARβ-specific response to BMS948. […] To investigate the role of these residues in the RARβ–specific response to BMS948, we compared the agonistic and antagonistic potentials of this compound for RARβ and RARγ, as well as chimeric RAR mutants in which LBPs were interconverted (denoted RARβ→γ and RARγ→β). Dose-response curves were established from transient transfection in HeLa cells of these proteins and a (RARE)3x-tk-luciferase reporter gene as described in Figs 2 and 3. […] (A) HeLa cells were transiently cotransfected with the reporter (RARE)3x-tk-Luc and RARβ (open circles), RARγ (closed diamonds), RARγ→β in which the methionine residue 272 in RARγ LBP is replaced by an isoleucine residue (open squares), or RARβ→γ in which the isoleucine residue 263 in RARβ LBP is replaced by a methionine residue (closed triangles) to assess the agonist potential of BMS948. […] (B) Transient transfection assays in HeLa cells with the reporter (RARE)3x-tk-Luc and RARβ→γ as in (A) to assess the antagonist potential of BMS948 and BMS493. […] (EPS) Click here for additional data file.

[11] = test system: T11, RARβ→γ; experiment: Transient transactivation assay with chimeric LBP mutant RARβ→γ in HeLa cells; assay type: cell-based
T11 construct: expressed in transfected cells; host or cells: HeLa
From the text: as §7

[12] = test system: RARβ; conditions: cited from earlier work
[13] = test system: RARγ; conditions: also personal data not shown; cited from earlier work
[14] = 10^–10 to 10^–6 M, only at the highest ligand concentration used (1 μM)

| EC50 ([2]; dose-response 10^–10 to 10^–6 M, read-out: EC50 transactivation for RARβ) | agonistic activity on RARβ-mediated transactivation ([2]; ligand at single selective concentration, compared with 10 nM TTNPB (100%)) | antagonistic activity on TTNPB-induced RARα transactivation [4] | Compound | agonistic activity on RARα-mediated transactivation [1] | activation of RARα in dose-response curves [1, 14] | activation of RARγ in dose-response curves [3, 14] | agonistic activity on RARγ-mediated transactivation ([3]; HeLa cells, ligand at single selective concentration, compared with 10 nM TTNPB (100%)) | antagonistic activity on TTNPB-induced RARβ transactivation [5] | antagonistic activity on TTNPB-induced RARγ transactivation [6] | efficacy on RARβL298F in dose-response curves ([7]; S6 Fig, increasing concentrations) | transcriptional activity on RARβL298F as compared to TTNPB ([7]; retinoids at 0.1 μM, 10 nM TTNPB = 100% with wild-type hRARβ) | RARβ-TIF2 interaction (coactivator recruitment) [8] | RARβ-SMRT interaction (corepressor binding) [9] | agonist potential on RARγ→β [10] | antagonist potential on RARβ→γ ([11]; 3 nM TTNPB (100%) plus compound at 1 μM) | agonist potential on RARβ→γ ([11]; 10^–9 to 10^–6 M, 100% = TTNPB at 10nM, only at high concentration) | reported activity on RARβ [12] | reported activity on RARγ [13] |
| --- | --- | --- | --- | --- | --- | --- | --- | --- | --- | --- | --- | --- | --- | --- | --- | --- | --- | --- |
|  |  |  | CC1(C)CCC(C)(C)c2cc(C(=O)Nc3ccc(C(=O)O)cc3)ccc21 [Am580, reference compound] | full agonistic activity |  |  |  |  |  |  |  |  |  |  |  |  |  |  |
| ~100 nM | full RARβ-agonist | very weak | O=C(O)c1ccc(NC(=O)c2ccc3cccc(-c4ccccc4)c3c2)cc1 [BMS948] | very weak activity | very weakly | very weakly | very weak activity | no | very weak | 70% | 50–60% | optimal | decreased | potent full agonist | did not reduce TTNPB-induced activity | very weak activation |  |  |
|  |  |  | CN1c2cc3c(cc2N=C(c2ccc(C(=O)O)cc2)c2ccccc21)C(C)(C)CCC3(C)C [LE135] |  |  |  |  |  |  |  |  |  |  |  |  |  | antagonist showing some selectivity for RARβ | some RARγ partial agonistic activity |
